From patent US20240342244A1, “Isthmin Protein Therapeutics for the Treatment of Non-Alcoholic Fatty Liver Disease” (The Board of Trustees of the Leland Stanford Junior …, priority 2021, published 2024) come the findings set out here.

One assay concerns primary mouse adipocytes. In words: 2-deoxy-3H-glucose uptake in primary mouse adipocytes. It is filed as cell-based. On the procedure: (§1) Mouse and human pre-adipocytes culture and differentiation. Inguinal fat pads from 4-8 week old C57BL/6J male and female mice were dissected and mechanically digested for 10 min using spring scissors. Digested tissues were incubated in WAT isolation buffer (10 ml PBS, 2.4 U/ml dispase II (#04942078001, Roche), 10 mg/ml collagenase D (#11088858001, Roche) at 37° C. for 45 min. 20 mL growth media was added and the tissue suspension was filtered through a 100-μm cell strainer and centrifuged at 600×g for 5 min. The cell pellets were resuspended in 20 mL growth media, filtered through a 40-μm cell strainer, centrifuged at 600×g for 5 min, resuspended in 10 mL growth media, and plated in 10-cm collagen-coated dishes. The cells were cultured in growth media (DMEM/F-12 Glutamax, Thermo Fisher Scientific #10565018) supplemented with 10% fetal bovine serum. Two days post-confluency, differentiation was induced with growth media containing 1 μM rosiglitazone, 0.5 mM isobutylmethylxanthine, 1 μM dexamethasone, 5 μg/mL insulin. After two days, cells were re-fed with growth media containing 1 μM rosiglitazone and 5 μg/mL insulin. Cells were fully differentiated after 6-8 days. For ISM1 knockdown or overexpression in primary adipocytes using adenovirus, 500 μL crude virus was mixed with 500 μL fresh growth media containing 1 μM rosiglitazone and 5 μg/mL insulin was added to each well at day 2 of differentiation. At day 4, virus-containing media was removed and 500 μL fresh growth media without stimulators was added to each well. SGBS cells were differentiated as described previously (Fischer-Posovszky et al., 2008; Wabitsch et al., 2001). Briefly, cells were cultured in growth media DMEM/F-12 Glutamax, supplemented with 10% fetal bovine serum, 33 uM biotin, and 17 uM pantothenate. Two days post confluency, differentiation was induced with serum-free DMEM/F12 media containing 33 uM biotin, 17 uM pantothenate, 0.01 mg/ml transferrin, 20 nM insulin, 100 nM cortisol, 0.2 nM triiodothyronine, 25 nM dexamethasone, 0.25 mM isobutyl methylxanthine, and 2 μM rosiglitazone. After four days, cells were re-fed with growth media containing 0.01 mg/ml transferrin 20 nM insulin, 100 nM cortisol, 0.2 nM triiodothyronine. Cells were fully differentiated after day 8-10.
(§2) Glucose uptake. Glucose uptake was performed as previously described (You et al., 2017). Briefly, 2-Deoxy-d-[2,6-3H]-glucose was purchased from PerkinElmer NEN radiochemicals. Fully differentiated adipocytes were washed with KRH buffer and starved in 0.5% BSA in KRH buffer for 4 h. Indicated concentrations of insulin or ISM1 were added at indicated time points. Cells were treated with a mixture of 500 μM 2-deoxy-D-glucose and 1.71 μCimL^−1 2-Deoxy-D-[1,2-3H (N)]-glucose for another 10 min followed by three washes using ice cold KRH buffer containing 200 mM glucose. The passive glucose uptake in the presence of 50 uM CytoB was less than 12% of the total glucose uptake. Cells were solubilized in 1% SDS and radioactivity was measured by liquid scintillation counting.

Assay [1] concerns pAKT^S473. The assay is described as follows: Signaling induced by ISM1 or insulin in 3T3-F442A cells pre-treated with inhibitors. The assay is classed as cell-based. Particulars: for effect of inhibitor on pAKT^S473 phosphorylation induced by ISM1 and insulin: ISM1 100 nM or insulin 100 nM, 3T3-F442A cells. As to the method: (§3) Western blots and molecular analyses. For western blotting, homogenized tissues or whole-cell lysates, samples were lysed in RIPA buffer containing protease inhibitor cocktail (Roche) and phosphatase inhibitor cocktail (Roche). Cell lysates were centrifuged at 14,000×g for 15 min and supernatants were prepared in 4×LDS Sample Buffer (Invitrogen) and separated by SDS-PAGE and transferred to Immobilon 0.45 μm membranes (Millipore). For Western blotting of plasma samples, 1 μl of plasma was prepared in 2× sample buffer (Invitrogen) with reducing agent, boiled, and analyzed using Western blot against indicated antibody. Protein kinase array (R&D systems ARY003B) was performed according to the manufacturers' description. All antibodies used in this paper are described in STAR methods.

In another assay the test system is DIO mice. In words: Therapeutic ISM1, Metformin or combined administration for 21 days in DIO mice. It is filed as in vivo, mouse. The conditions noted are these: daily for 21 days; compared with vehicle. On the procedure: Therapeutic ISM1 recombinant protein administration in vivo. All pharmacologic studies using recombinant ISM1 protein were performed in mice with established diet-induced obesity or non-alcoholic fatty liver disease (NAFLD). For all experiments, male C57BL/6J mice purchased from Jax were fed either a high-fat diet (#D12492, Research Diets) or a NAFLD diet (#D09100310, Research Diets) prior to ISM1 protein injections. In all experiments, mice were mock injected with saline for three days prior to protein or drug injections to prevent stress-induced weight loss. Mice were I.P. injected with vehicle (saline) or indicated doses of ISM1 protein diluted in saline. For the 14-day experiments in NAFLD mice, 7-weeks old mice were fed with NAFLD diet for 3 weeks and then mock injected with saline for 3 days prior to protein injections. The induction of lipid accumulation with NAFLD diet was verified by the significant increase in hepatic lipid levels compared with mice on chow diet at the same time point. NAFLD mice were then daily I.P. injected with either vehicle (saline containing 5% DMSO and 10% Kolliphor) or indicated doses of ISM1 protein (500 μg/kg or 5 mg/kg) or with FXR agonist (30 mg/kg, GW4064, Sigma-Aldrich, #G5172) diluted in vehicle (saline containing 5% DMSO and 10% Kolliphor). For the 21-day experiments in HFD mice, mice were mock injected with saline for three days prior to protein injections. Mice were then daily I.P. injected with either vehicle (saline) or 5 mg/kg of ISM1 protein diluted in saline. Metformin (100 mg/kg, Sigma, #317240) was diluted in saline and daily administered by oral gavage. All groups received control injections by I.P. and oral gavage. At the end of the experiments, mice and tissue weights were recorded. Tissues and plasma were collected and frozen for further analyses.
Glucose tolerance and insulin tolerance tests. For glucose tolerance tests, mice were fasted overnight and I.P. injected with glucose at 2 g/kg body weight. Blood glucose levels were measured at 0, 15, 30, 45, 60, 90 and 120 mins. For insulin tolerance tests, mice were fasted for 2 h, and I.P. injected with 0.75 U/kg insulin. Blood glucose levels were measured at 0, 15, 30, 45, 60, 90 and 120 mins.

In the next assay the test system is human SGBS adipocytes. In words: 2-deoxy-3H-glucose uptake in human SGBS adipocytes. It is filed as cell-based. The conditions noted are these: 50 nM OSI-906. On the procedure: as §1, §2
Assay [2] concerns pAKT^S473. In words: pAKT S473 signaling in 3T3-F442A cells (phosphokinase array, western blot). The conditions noted are these: 100 nM; 5 min. The assay is classed as cell-based. As to the method:
as §3
(In western blotting, separated proteins are transferred to a membrane and probed.)

Setting [3] is: pre-treated for 30 min, ISM1 or insulin 100 nM.

With `C=C1[C@@H](C)[C@H]2[C@H](Cc3ccccc3)NC(=O)[C@]23OC(=O)/C=C/[C@H](O)CCC[C@@H](C)C/C=C/[C@H]3[C@@H]1O` [CytoB, reference compound], in the assay with primary mouse adipocytes (50 uM CytoB), the “passive glucose uptake as share of total glucose uptake” value was “less than 12%”.

`COc1ccccc1N1CCN(c2ncnc3n[nH]c(Br)c23)CC1` [DG2]: in the assay on pAKT^S473 [1] (setting [3]), the “effect of inhibitor on S6^S235/S236” value is “dose-dependently inhibited” and the “pAKT in presence of inhibitor” value is reported as “remained intact”.

Turning to `CCOc1cn(-c2ccc(F)cc2C)nc1C(=O)Nc1ccc(Oc2ccnc3cc(OC)c(OC)cc23)c(F)c1` [LDC1267], the “effect of inhibitor on signaling induced by PDGFββ or insulin” value in the assay with pAKT^S473 [1] (any of the doses tested, insulin 200 nM, PDGF-ββ 20 ng/ml) was “neither the signaling induced by PDGFββ or insulin are inhibited”. For the same molecule, the “effect of inhibitor on ISM1-induced pAKT signaling” value in the assay with pAKT^S473 [1] (pre-treated for 30 min, ISM1 200 nM) is on record as “inhibited”.

In the case of `CN(C)C(=N)N=C(N)N` [Metformin, reference compound], in the assay with DIO mice, the fasting blood glucose entry is on record as “lower” and the “glucose tolerance (GTT)” value is reported as “comparable effects on improving glucose tolerance”.

On to `C[C@]1(O)C[C@@H](c2nc(-c3ccc4ccc(-c5ccccc5)nc4c3)c3c(N)nccn32)C1` [OSI-906, reference compound], for which the “insulin-induced glucose uptake in presence of inhibitor” value in the assay on human SGBS adipocytes is “significantly reduced”. Further, the “ISM1-induced glucose uptake in presence of inhibitor” value in the assay with human SGBS adipocytes (100 nM ISM1) is on record as “not affected”. Besides, in the assay with pAKT^S473 [1] (1000 nM OSI-906, insulin 100 nM), the “insulin signaling in presence of inhibitor” value is recorded as “completely abolished”. Besides, the “ISM1 signaling in presence of inhibitor” value with pAKT^S473 [1] (even at 1000 nM OSI-906, ISM1 100 nM) is “intact”.

Turning to `COc1ncc(-c2ccc3nccc(-c4ccnnc4)c3c2)cc1NS(=O)(=O)c1ccc(F)cc1F` [Omipalisib], in the assay on pAKT^S473 [1], the “effect of inhibitor on pAKT^S473 phosphorylation induced by ISM1 and insulin” value (shortened to “effect of inhibitor … by ISM1 and insulin”) is listed as “completely block”.

`Cc1ccc([N+](=O)[O-])cc1S(=O)(=O)N(C)/N=C/c1cnc2ccc(Br)cn12` [PIK]: the “effect of inhibitor … by ISM1 and insulin” value with pAKT^S473 [1] is reported as “completely block”.

In the case of `CCC(=O)N1CCN(c2ccc(-n3c(=O)ccc4cnc5ccc(-c6cnc7ccccc7c6)cc5c43)cc2C(F)(F)F)CC1` [Torin], the “effect of inhibitor … by ISM1 and insulin” value with pAKT^S473 [1] is on record as “fully ablates”.

As to “Thrombospondin-1: his-tagged mouse Thrombospondin-1, control protein containing thrombospondin domains [reference compound]”, the “bioactivity on pAKT^S473 (western blot)” value in the assay on pAKT^S473 [2] was “no bioactivity”.

On to albumin [reference compound], for which the “glucose uptake (protein control)” value in the assay with primary mouse adipocytes (100 nM) was “no effect”.
